Laboratory results published in US20040126431A1, “Method for preparing microspheres containing a water-soluble substance” (priority 2000, published 2004).

How the values were obtained:
[1] = test system: IGROV-1 xenografts (peritoneal ovarian adenocarcinoma of human origin); assay: Antitumor activity on IGROV-1 tumors after i.p. administration; format: in vivo, Nude mice; details: for Survival at D98: survivors/5 mice
Excerpt: 10^7 viable IGROV-1 cells were inoculated i.p. into Nude mice. On day 15 after inoculation of tumor cells, the mice were given the substances tested by i.p. administration.
The control group was given only a solution of 5% glucose or empty microspheres. Each group was made up of 5 mice. Isoflurane was used to anesthetize the animals before implantation of the tumor or sacrifice of the animals.
(§1) The experiments were stopped when the size of the tumor reached 2 000 mm^3 or when the period after the final treatment exceeded 60 days. Mice carrying progressive tumors were sacrificed. The mice were weighed and examined twice a week, and the weight of the sick animals was compared with the weight of three healthy mice (no tumor, no treatment, of the same batches). The animals were monitored for 98 days.

[2] = test system: PC-3 human prostate tumors (xenografts); assay: Antitumor activity on PC-3 human prostate tumors after i.t. administration; format: in vivo, Nude mice
Procedure: 10^7 PC-3 cells were inoculated on the flank of male Nude mice. The treatment began from a tumor size of 210-266 mm^3 (day 30).
The volume of the test substances administered to the PC-3 tumors was equivalent to the tumor volume (1 μl of treatment per 1 mm^3 of tumor).
as §1

O=C1[O][Pt]2([NH][C@@H]3CCCC[C@H]3[NH]2)[O]C1=O [Oxaliplatin, oxaliplatin]
T/C % (median survival time treated / untreated control x 100) ([1]; i.p., 6 mg/kg oxaliplatin administered 3 times every four days, treatment from day 15): 85.71%
Survival at D98 ([1]; i.p., 6 mg/kg oxaliplatin administered 3 times every four days): 0/5
antitumor activity (in words) ([1]; i.p., dose of 15 mg base/kg oxaliplatin): did not show any significant antitumor activity
T/C % (median survival time treated / untreated control x 100) ([1]; single i.p. dose, 15 mg/kg oxaliplatin, day 15): 102.38%
Survival at D98 ([1]; single i.p. dose, 15 mg/kg oxaliplatin): 1/5
T/C % ([2]; i.v., 6 mg/kg oxaliplatin administered three times every four days): 80.41%
T/C % ([2]; single i.t. injection, 30 mg/kg oxaliplatin, 30 mg/kg): 5.24%
T/C % ([2]; single i.v. injection, 15 mg/kg oxaliplatin): 55.47%
